These are literature values, as cited in patent publication EP4674947A1, “YEAST MUTANT STRAIN WITH HIGH GLYCOLIPID PRODUCTIVITY” (KAO CORPORATION, priority 2024, dated 2025).

For this data set the following is noted: decreased from 72.8 mN/m; sophorolipid produced by Starmerella bombicola.

As for Sophorolipid, the “surface tension of water decreased to” value is listed as 30 mN/m.
